Experimental data: US8642594B2, “Substituted thieno[2,3-d]pyrimidines as HSP90 inhibitors” (Vernalis (R&D) Limited, priority 2003, dated 2014)

biological target: T1, Human full-length Hsp90 (Homo sapiens, UniProt P08238); assay: Fluorescence polarization assay (competitive binding to HSP90, probe RBT0045864-FAM); conditions: not given
T1 construct: E. coli expressed human full-length HSP90 protein, purified >95%; made in house; host or cells: E. coli
Method: Fluorescence Polarization Assay
Fluorescence polarization {also known as fluorescence anisotropy} measures the rotation of a fluorescing species in solution, where the larger molecule the more polarized the fluorescence emission. When the fluorophore is excited with polarized light, the emitted light is also polarized. The molecular size is proportional to the polarization of the fluorescence emission.
The fluoroscein-labelled probe—RBT0045864-FAM—
Test compound is added to the assay plate, left to equilibrate and the anisotropy measured again. Any change in anisotropy is due to competitive binding of compound to HSP90, thereby releasing probe.
Stored at room temperature. • 3) BSA (bovine serum albumen) 10 mg/ml (New England Biolabs #B9001S) • 4) 20 mM probe in 100% DMSO stock concentration. Stored in the dark at RT. Working concentration is 200 nM diluted in AR water and stored at 4° C. […] Protocol • 1) Add 100 μl 1× buffer to wells 11A and 12A (=FP BLNK) • 2) Prepare assay mix—all reagents are kept on ice with a lid on the bucket as the probe is light-sensitive.
This gives 2.5 mM {50×} stock cpd—assuming cpds 20 mM. • 4) Repeat for wells A2 to A10. Control in columns 11 and 12. • 5) Transfer 5 μl from row A to row B—not column 12. Mix well. • 6) Transfer 5 μl from row B to row C. […] Add 2 μl of 100 mM standard cpd to wells B12-H12 {is positive control} • 13) The Z′ factor is calculated from zero controls and positive wells.

T1 sequence (P08238 whole entry): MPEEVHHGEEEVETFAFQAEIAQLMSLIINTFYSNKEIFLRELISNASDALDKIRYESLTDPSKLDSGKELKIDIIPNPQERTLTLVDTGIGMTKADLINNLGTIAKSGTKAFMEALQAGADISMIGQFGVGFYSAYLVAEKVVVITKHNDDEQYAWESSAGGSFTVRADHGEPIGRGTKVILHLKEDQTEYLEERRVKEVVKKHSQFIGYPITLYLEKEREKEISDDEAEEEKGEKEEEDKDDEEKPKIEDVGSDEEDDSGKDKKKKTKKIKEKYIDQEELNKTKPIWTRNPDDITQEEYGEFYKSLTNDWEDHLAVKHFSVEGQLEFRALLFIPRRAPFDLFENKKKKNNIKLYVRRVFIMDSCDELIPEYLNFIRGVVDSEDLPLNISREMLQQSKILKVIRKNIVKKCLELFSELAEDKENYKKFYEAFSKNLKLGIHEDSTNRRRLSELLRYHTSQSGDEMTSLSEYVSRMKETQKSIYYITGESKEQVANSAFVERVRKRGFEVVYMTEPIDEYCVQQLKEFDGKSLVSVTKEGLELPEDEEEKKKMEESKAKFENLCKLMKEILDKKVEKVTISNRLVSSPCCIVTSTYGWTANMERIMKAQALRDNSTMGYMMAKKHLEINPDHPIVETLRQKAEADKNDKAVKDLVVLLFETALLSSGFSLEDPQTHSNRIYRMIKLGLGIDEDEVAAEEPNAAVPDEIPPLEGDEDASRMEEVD

`CCNC(=O)c1cc2c(-c3cc(OCCN(C)C)c(Cl)cc3Cl)nc(N)nc2s1` [Example 254] and `CCNC(=O)c1cc2c(-c3cc(OCCCN(C)C)c(Cl)cc3Cl)nc(N)nc2s1` [Example 255] cannot be ordered by IC50: under 10 µM for the first, under 10 µM for the second.

For `CCNC(=O)c1cc2c(-c3ccc(Cl)cc3Cl)nc(N)nc2s1` [Example 98], the IC50 was under 10 µM.

same assay, conditions: fluorescence polarization assay, activity range; read-out: Hsp90 FP IC50

First: Cc1c(C(N)=O)sc2nc(N)nc(-c3ccccc3)c12 [Example 75, 2-Amino-5-methyl-4-phenyl-thieno[2,3-d]pyrimidine-6-carboxylic acid amide]
Second: CC(C)NC(=O)c1cc2c(-c3ccccc3)nc(N)nc2s1 [Example 56]
The IC50 of the first is higher: over 10 µM for the first, under 10 µM for the second.

`CCOC(=O)c1cc2c(C(=O)c3cc(C)ccc3C)nc(N)nc2s1` [Example 299] and `CCOC(=O)c1cc2c(C(=O)c3ccc(Cl)c(Cl)c3)nc(N)nc2s1` [Example 309] cannot be ordered by IC50: under 10 µM for the first, under 10 µM for the second.

`CCNC(=O)c1cc2c(-c3ccc(C)cc3Cl)nc(N)nc2s1` [Example 152] and `Cc1ccc(-c2nc(N)nc3sc(C(=O)NCC(N)=O)cc23)c(C)c1` [Example 95] cannot be ordered by IC50: under 10 µM for the first, under 10 µM for the second.

`C=CCOc1ccc(-c2nc(N)nc3sc(C(=O)OCC)cc23)c(C)c1` [Example 187] and `CCOC(=O)c1cc2c(-c3ccc(Cl)cc3C)nc(N)nc2s1` [Example 3] cannot be ordered by IC50: under 10 µM for the first, under 10 µM for the second.

`CN1CCCC1CCNC(=O)c1cc2c(-c3ccc(Cl)cc3Cl)nc(N)nc2s1` (stereo not shown) [Example 157] and `NC(=O)CCNC(=O)c1cc2c(-c3ccc(Cl)cc3Cl)nc(N)nc2s1` [Example 131] cannot be ordered by IC50: under 10 µM for the first, under 10 µM for the second.

`CCOC(=O)c1cc2c(-c3c(C)cc(C)cc3C)nc(N)nc2s1` [Example 77] and `CCOC(=O)c1cc2c(-c3c(C)cccc3C)nc(N)nc2s1` [Example 6] cannot be ordered by IC50: under 10 µM for the first, under 10 µM for the second.

`Nc1nc(-c2ccccc2)c2cc(C(=O)NCCO)sc2n1` [Example 72] and `CN(C)CCNC(=O)c1cc2c(-c3ccccc3)nc(N)nc2s1` [Example 44] cannot be ordered by IC50: under 10 µM for the first, under 10 µM for the second.

`CCOC(=O)c1cc2c(-c3ncccc3C)nc(N)nc2s1` [Example 115] and `CCOC(=O)c1cc2c(-c3ccc(O)cc3C)nc(N)nc2s1` [Example 184, 2-Amino-4-(4-hydroxy-2-methyl-phenyl)-thieno[2,3-d]pyrimidine-6-carboxylic acid ethyl ester] cannot be ordered by IC50: under 10 µM for the first, under 10 µM for the second.

`Nc1nc(-c2ccccc2)c2cc(C(=O)NCCCN3CCOCC3)sc2n1` [Example 66] and `CCOC(=O)c1cc2c(-c3cc4ccccc4o3)nc(N)nc2s1` [Example 13] cannot be ordered by IC50: over 10 µM for the first, over 10 µM for the second.

Going from `CCOC(=O)c1cc2c(NC(C)c3ccccc3)nc(N)nc2s1` (stereo not shown) [Example 26] to `C[C@@H](NC(=O)c1cc2c(-c3ccc(Cl)cc3Cl)nc(N)nc2s1)c1ccccc1` [Example 138], the IC50 falls from over 10 µM to under 10 µM. The second is the more potent here.

`Nc1nc(-c2ccc(Cl)cc2Cl)c2cc(C(=O)NCc3ccc4c(c3)OCO4)sc2n1` [Example 119] and `Nc1nc(-c2ccc(Cl)cc2Cl)c2cc(C(=O)NCc3ccncc3)sc2n1` [Example 141] cannot be ordered by IC50: under 10 µM for the first, under 10 µM for the second.

`C=CCNCc1ccc(C)c(-c2nc(N)nc3sc(C(=O)NCC)cc23)c1` [Example 209] and `CCNC(=O)c1cc2c(-c3cc(CNCC(N)=O)ccc3C)nc(N)nc2s1` [Example 219] cannot be ordered by IC50: under 10 µM for the first, under 10 µM for the second.

`Nc1nc(-c2ccc(Cl)cc2Cl)c2cc(C(=O)Nc3ccc(S(N)(=O)=O)cc3)sc2n1` [Example 108] and `Nc1nc(-c2ccc(Cl)cc2Cl)c2cc(C(=O)Nc3ccc(Cl)cc3)sc2n1` [Example 111] cannot be ordered by IC50: under 10 µM for the first, under 10 µM for the second.

`CC(C)NC(=O)c1cc2c(-c3ccc(Cl)cc3Cl)nc(N)nc2s1` [Example 133] and `Nc1nc(-c2ccc(Cl)cc2Cl)c2cc(C(=O)NCc3ccco3)sc2n1` [Example 125] cannot be ordered by IC50: under 10 µM for the first, under 10 µM for the second.

`CCNC(=O)c1cc2c(-c3cc(CNCC4CCCO4)ccc3C)nc(N)nc2s1` (stereo not shown) [Example 212] and `CCOC(=O)c1cc2c(-c3cc(C(=O)OC)ccc3C)nc(N)nc2s1` [Example 179] cannot be ordered by IC50: under 10 µM for the first, under 10 µM for the second.

In the case of `CCOC(=O)c1cc2c(C(=O)c3ccc(Cl)c(F)c3)nc(N)nc2s1` [Example 313], the IC50 is reported as under 10 µM.
